Tested on: K98450-129-R-PDC multicell spheroids, viability
Assay: Anticancer human tumor K98450-129-R-PDC patient-derived colon adenocarcinoma cell line growth inhibition [PI3K]
Conditions: for viability, T/C: stronger effect = lower value
Procedure, shortened: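 Spheroid viability read-out. Co-cultures contained the tumor line plus HUVEC and human MSCs. Each agent was paired with a PI3K inhibitor (inavolisib, alpelisib, duvelisib, copanlisib) across half-log dilutions starting at clinical Cmax, or at 10 microM when Cmax was unknown.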

[1] = curve of first compound, second compound 0.0316 µM
[2] = curve of first compound, second compound 0.1 µM
[3] = curve of first compound, second compound 0.316 µM
[4] = curve of first compound, second compound 1 µM
[5] = curve of first compound, second compound 3.16 µM
[6] = curve of first compound, second compound 10 µM
[7] = second compound 0.0316 µM, first compound 0.0316 µM
[8] = second compound 0.0316 µM, first compound 0.1 µM
[9] = second compound 0.1 µM, first compound 0.0316 µM
[10] = second compound 0.1 µM, first compound 0.1 µM
[11] = second compound 0.316 µM, first compound 0.0316 µM
[12] = second compound 0.316 µM, first compound 0.1 µM
[13] = second compound 1 µM, first compound 0.0316 µM
[14] = second compound 1 µM, first compound 0.1 µM
[15] = second compound 3.16 µM, first compound 0.0316 µM
[16] = second compound 3.16 µM, first compound 0.1 µM
[17] = second compound 10 µM, first compound 0.0316 µM
[18] = second compound 10 µM, first compound 0.1 µM
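Further: spheroids exposed to agents for seven days before read-out.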

## Cn1cnc2c(F)c(Nc3ccc(Br)cc3Cl)c(C(=O)NOCCO)cc21 + COc1c(OCCCN2CCOCC2)ccc2c3n(c(=NC(=O)c4cnc(N)nc4)nc12)CCN3
Curve of first compound, second compound 0.00316 µM
  IC50: 663 nM
Curve of first compound, second compound 0.01 µM
  IC50: 1000 nM
[1]
  IC50: 351 nM
[2]
  IC50: 303 nM
[3]
  IC50: 102 nM
[4]
  IC50: < 9.49 nM
Second compound 0.00316 µM, first compound 0.00949 µM
  viability, T/C: 98.5%
Second compound 0.00316 µM, first compound 0.03 µM
  viability, T/C: 77.5%
Second compound 0.00316 µM, first compound 0.0949 µM
  viability, T/C: 76.3%
Second compound 0.00316 µM, first compound 0.3 µM
  viability, T/C: 68.8%
Second compound 0.00316 µM, first compound 0.949 µM
  viability, T/C: 41.5%
Second compound 0.00316 µM, first compound 3 µM
  viability, T/C: 21.3%
Second compound 0.01 µM, first compound 0.00949 µM
  viability, T/C: 94.7%
Second compound 0.01 µM, first compound 0.03 µM
  viability, T/C: 77.9%
Second compound 0.01 µM, first compound 0.0949 µM
  viability, T/C: 74.6%
Second compound 0.01 µM, first compound 0.3 µM
  viability, T/C: 65.5%
Second compound 0.01 µM, first compound 0.949 µM
  viability, T/C: 58.9%
Second compound 0.01 µM, first compound 3 µM
  viability, T/C: 18.2%
Second compound 0.0316 µM, first compound 0.00949 µM
  viability, T/C: 91.6%
Second compound 0.0316 µM, first compound 0.03 µM
  viability, T/C: 86.1%
Second compound 0.0316 µM, first compound 0.0949 µM
  viability, T/C: 66%
Second compound 0.0316 µM, first compound 0.3 µM
  viability, T/C: 50.2%
Second compound 0.0316 µM, first compound 0.949 µM
  viability, T/C: 37.7%
Second compound 0.0316 µM, first compound 3 µM
  viability, T/C: 14.7%
Second compound 0.1 µM, first compound 0.00949 µM
  viability, T/C: 87.4%
Second compound 0.1 µM, first compound 0.03 µM
  viability, T/C: 71.4%
Second compound 0.1 µM, first compound 0.0949 µM
  viability, T/C: 71.8%
Second compound 0.1 µM, first compound 0.3 µM
  viability, T/C: 49.9%
Second compound 0.1 µM, first compound 0.949 µM
  viability, T/C: 26.7%
Second compound 0.1 µM, first compound 3 µM
  viability, T/C: 5.26%
Second compound 0.316 µM, first compound 0.00949 µM
  viability, T/C: 56.4%
Second compound 0.316 µM, first compound 0.03 µM
  viability, T/C: 49.9%
Second compound 0.316 µM, first compound 0.0949 µM
  viability, T/C: 47.8%
Second compound 0.316 µM, first compound 0.3 µM
  viability, T/C: 39.2%
Second compound 0.316 µM, first compound 0.949 µM
  viability, T/C: 11.4%
Second compound 0.316 µM, first compound 3 µM
  viability, T/C: 6.72%
Second compound 1 µM, first compound 0.00949 µM
  viability, T/C: 45.9%
Second compound 1 µM, first compound 0.03 µM
  viability, T/C: 37.8%
Second compound 1 µM, first compound 0.0949 µM
  viability, T/C: 29.8%
Second compound 1 µM, first compound 0.3 µM
  viability, T/C: 22.6%
Second compound 1 µM, first compound 0.949 µM
  viability, T/C: 9.08%
Second compound 1 µM, first compound 3 µM
  viability, T/C: 4.95%

## CC(Nc1ncnc2nc[nH]c12)c1cc2cccc(Cl)c2c(=O)n1-c1ccccc1 (centres undefined)
Compound 0.0316 µM
  viability, T/C: 105% [middle of 8 runs]
Compound 0.1 µM
  viability, T/C: 98.9% [middle of 8 runs]
Compound 0.316 µM
  viability, T/C: 103% [middle of 8 runs]
Compound 1 µM
  viability, T/C: 99.9% [middle of 8 runs]
Compound 3.16 µM
  viability, T/C: 105% [middle of 8 runs]
Compound 10 µM
  viability, T/C: 97.6% [middle of 8 runs]
Compound alone, run of 04/25/2023
  IC50: > 10000 nM

## Cn1ncnc1[C@H]1c2n[nH]c(=O)c3cc(F)cc(c23)N[C@@H]1c1ccc(F)cc1 + Cc1nc(NC(=O)N2CCCC2C(N)=O)sc1-c1ccnc(C(C)(C)C(F)(F)F)c1
[1]
  IC50: > 100 nM
[2]
  IC50: > 100 nM
[3]
  IC50: > 100 nM
[4]
  IC50: > 100 nM
[5]
  IC50: > 100 nM
[6]
  IC50: > 100 nM
Second compound 0.0316 µM, first compound 0.000316 µM
  viability, T/C: 110%
Second compound 0.0316 µM, first compound 0.001 µM
  viability, T/C: 108%
Second compound 0.0316 µM, first compound 0.00316 µM
  viability, T/C: 109%
Second compound 0.0316 µM, first compound 0.01 µM
  viability, T/C: 97.3%
[7]
  viability, T/C: 101%
[8]
  viability, T/C: 96.3%
Second compound 0.1 µM, first compound 0.000316 µM
  viability, T/C: 108%
Second compound 0.1 µM, first compound 0.001 µM
  viability, T/C: 99.2%
Second compound 0.1 µM, first compound 0.00316 µM
  viability, T/C: 106%
Second compound 0.1 µM, first compound 0.01 µM
  viability, T/C: 100%
[9]
  viability, T/C: 102%
[10]
  viability, T/C: 97.6%
Second compound 0.316 µM, first compound 0.000316 µM
  viability, T/C: 96.5%
Second compound 0.316 µM, first compound 0.001 µM
  viability, T/C: 99%
Second compound 0.316 µM, first compound 0.00316 µM
  viability, T/C: 99.9%
Second compound 0.316 µM, first compound 0.01 µM
  viability, T/C: 97.8%
[11]
  viability, T/C: 104%
[12]
  viability, T/C: 87.3%
Second compound 1 µM, first compound 0.000316 µM
  viability, T/C: 89.4%
Second compound 1 µM, first compound 0.001 µM
  viability, T/C: 98.1%
Second compound 1 µM, first compound 0.00316 µM
  viability, T/C: 95.2%
Second compound 1 µM, first compound 0.01 µM
  viability, T/C: 90.7%
[13]
  viability, T/C: 101%
[14]
  viability, T/C: 91.9%
Second compound 3.16 µM, first compound 0.000316 µM
  viability, T/C: 85%
Second compound 3.16 µM, first compound 0.001 µM
  viability, T/C: 89.4%
Second compound 3.16 µM, first compound 0.00316 µM
  viability, T/C: 86.9%
Second compound 3.16 µM, first compound 0.01 µM
  viability, T/C: 86%
[15]
  viability, T/C: 91.6%
[16]
  viability, T/C: 80.3%
Second compound 10 µM, first compound 0.000316 µM
  viability, T/C: 72.4%
Second compound 10 µM, first compound 0.001 µM
  viability, T/C: 73.1%
Second compound 10 µM, first compound 0.00316 µM
  viability, T/C: 75.7%
Second compound 10 µM, first compound 0.01 µM
  viability, T/C: 71.5%
[17]
  viability, T/C: 74.8%
[18]
  viability, T/C: 70.2%

## CC(Cn1ccc(-c2ccc(C#N)c(Cl)c2)n1)NC(=O)c1cc(C(C)O)[nH]n1 (centres undefined) + Cc1nc(NC(=O)N2CCCC2C(N)=O)sc1-c1ccnc(C(C)(C)C(F)(F)F)c1
[1]
  IC50: > 10000 nM
[2]
  IC50: > 10000 nM
[3]
  IC50: > 10000 nM
[4]
  IC50: > 10000 nM
[5]
  IC50: > 10000 nM
[6]
  IC50: > 10000 nM
[7]
  viability, T/C: 103%
[8]
  viability, T/C: 98.6%
Second compound 0.0316 µM, first compound 0.316 µM
  viability, T/C: 107%
Second compound 0.0316 µM, first compound 1 µM
  viability, T/C: 105%
Second compound 0.0316 µM, first compound 3.16 µM
  viability, T/C: 99.8%
Second compound 0.0316 µM, first compound 10 µM
  viability, T/C: 103%
[9]
  viability, T/C: 108%
[10]
  viability, T/C: 99.3%
Second compound 0.1 µM, first compound 0.316 µM
  viability, T/C: 104%
Second compound 0.1 µM, first compound 1 µM
  viability, T/C: 94.2%
Second compound 0.1 µM, first compound 3.16 µM
  viability, T/C: 99.5%
Second compound 0.1 µM, first compound 10 µM
  viability, T/C: 103%
[11]
  viability, T/C: 104%
[12]
  viability, T/C: 94.4%
Second compound 0.316 µM, first compound 0.316 µM
  viability, T/C: 99.3%
Second compound 0.316 µM, first compound 1 µM
  viability, T/C: 98.6%
Second compound 0.316 µM, first compound 3.16 µM
  viability, T/C: 102%
Second compound 0.316 µM, first compound 10 µM
  viability, T/C: 103%
[13]
  viability, T/C: 86.4%
[14]
  viability, T/C: 101%
Second compound 1 µM, first compound 0.316 µM
  viability, T/C: 98.3%
Second compound 1 µM, first compound 1 µM
  viability, T/C: 88.8%
Second compound 1 µM, first compound 3.16 µM
  viability, T/C: 98.2%
Second compound 1 µM, first compound 10 µM
  viability, T/C: 84.8%
[15]
  viability, T/C: 85.1%
[16]
  viability, T/C: 81.4%
Second compound 3.16 µM, first compound 0.316 µM
  viability, T/C: 86.8%
Second compound 3.16 µM, first compound 1 µM
  viability, T/C: 84%
Second compound 3.16 µM, first compound 3.16 µM
  viability, T/C: 94%
Second compound 3.16 µM, first compound 10 µM
  viability, T/C: 85.8%
[17]
  viability, T/C: 75.6%
[18]
  viability, T/C: 72.1%
Second compound 10 µM, first compound 0.316 µM
  viability, T/C: 80.3%
Second compound 10 µM, first compound 1 µM
  viability, T/C: 81.1%
Second compound 10 µM, first compound 3.16 µM
  viability, T/C: 80.8%
Second compound 10 µM, first compound 10 µM
  viability, T/C: 74.3%

## Cn1ncnc1[C@H]1c2n[nH]c(=O)c3cc(F)cc(c23)N[C@@H]1c1ccc(F)cc1
Compound 0.000316 µM
  viability, T/C: 104% [middle of 4 runs]
Compound 0.001 µM
  viability, T/C: 95% [middle of 4 runs]
Compound 0.00316 µM
  viability, T/C: 103% [middle of 4 runs]
Compound 0.0316 µM
  viability, T/C: 104% [middle of 4 runs]
Compound 0.1 µM
  viability, T/C: 95.2% [middle of 4 runs]
Curve of compound
  IC50: > 100 nM
